The term IC50 denotes the midpoint of a concentration-inhibition curve.

The target in one assay is T1, CLK2 (Homo sapiens, UniProt P49760).
T1 construct: Enzyme activity was measured with off-chip mobility shift assay using purified CLK protein
The assay is described as follows: Inhibition confirmation test for CLK (off-chip mobility shift assay). The format is biochemical. To be noted: ATP 150 μM; read-out: CLK2 inhibitory activity (IC50 value). The procedure:
(§1) Enzyme activity was measured with off-chip mobility shift assay using purified CLK protein. DYRKtide-F peptide (1 μM) was used as a substrate, and a composition of a reaction solution used was as follows (20 mM HEPES (pH7.5), 0.01% Triton X-100, 1 mM DT7, 1% DMSO, and ATP (10 μM for CLK1, 150 μM for CLK2, and 75 μM for CLK3)). The enzyme reaction was performed at room temperature for 1 hour, and the reaction was terminated by adding QuickScout Screening Assist MSA (Carna Biosciences, Inc.). A substrate peptide and a phosphorylated peptide in the enzyme reaction solution were separated and quantified using the LabChip system (Perkin-Elmer, Waltham, MA, USA), and inhibition of CLK was evaluated by calculating a product ratio using the following formula, the substrate peptide peak height (S), and the phosphorylated peptide peak height (P).
(§2) (P/(P+S)) • P: product-derived peak • S: substrate-derived peak

In the next assay the target is T2, CLK3 (Homo sapiens, UniProt P49761).
T2 construct: Enzyme activity was measured with off-chip mobility shift assay using purified CLK protein
T2 sequence (P49761 whole entry): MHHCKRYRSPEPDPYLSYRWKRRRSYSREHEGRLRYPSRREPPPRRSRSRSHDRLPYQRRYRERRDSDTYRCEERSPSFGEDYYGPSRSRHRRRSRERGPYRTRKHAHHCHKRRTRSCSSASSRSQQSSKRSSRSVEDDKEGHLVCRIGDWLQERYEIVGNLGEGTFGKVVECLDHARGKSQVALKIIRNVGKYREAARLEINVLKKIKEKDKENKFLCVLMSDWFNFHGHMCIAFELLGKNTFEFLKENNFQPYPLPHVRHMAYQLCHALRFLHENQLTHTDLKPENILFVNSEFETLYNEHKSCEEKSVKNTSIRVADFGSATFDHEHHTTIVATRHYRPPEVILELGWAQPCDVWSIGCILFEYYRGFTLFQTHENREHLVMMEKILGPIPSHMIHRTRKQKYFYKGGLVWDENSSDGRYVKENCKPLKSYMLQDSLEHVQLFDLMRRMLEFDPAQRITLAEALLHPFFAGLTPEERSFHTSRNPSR
Described as above. The format is biochemical. As to conditions: ATP 75 μM; read-out: CLK3 inhibitory activity (IC50 value). The procedure:
as §1, §2

Another assay concerns SARS-CoV-2. The class given is cell-based.

“And” between values parts separate entries of the source, which are not always exact repeats. Identical values can stand only once.

T1 sequence (P49760 whole entry): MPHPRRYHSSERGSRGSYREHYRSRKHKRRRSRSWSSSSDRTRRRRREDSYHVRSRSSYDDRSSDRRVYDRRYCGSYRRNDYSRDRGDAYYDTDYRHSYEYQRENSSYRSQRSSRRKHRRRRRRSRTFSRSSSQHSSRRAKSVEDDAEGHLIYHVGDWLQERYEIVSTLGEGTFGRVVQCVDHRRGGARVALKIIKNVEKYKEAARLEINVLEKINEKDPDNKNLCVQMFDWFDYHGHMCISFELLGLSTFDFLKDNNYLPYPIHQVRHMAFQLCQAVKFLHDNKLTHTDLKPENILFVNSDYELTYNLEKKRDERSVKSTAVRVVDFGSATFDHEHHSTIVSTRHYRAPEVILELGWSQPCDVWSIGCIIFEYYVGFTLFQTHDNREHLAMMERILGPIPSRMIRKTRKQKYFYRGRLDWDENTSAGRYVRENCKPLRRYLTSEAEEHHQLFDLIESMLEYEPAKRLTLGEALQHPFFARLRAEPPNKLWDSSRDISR

In the case of `N=C1NC(=O)/C(=C/c2ccc3c(c2)CCO3)S1` [compound 1], the IC50 on CLK2 is 68.3 nM; on CLK3 it was 116 nM. Besides, the “viral titer fold change” value in the assay on SARS-CoV-2 turned out to be 0.56. Besides, the “log10 (TCID50/ml) Batch-effect corrected” value in the assay with SARS-CoV-2 (10 μM, 2nd batch replicates, listed as Compund 1) was 7.6 and 7.44 and 7.41. In addition, in the assay with SARS-CoV-2 (10 μM, raw, single replicates of 1st and 2nd batch, listed as Compund 1), the “log10 (TCID50/ml)” value is 7.5 (2×) and 7.25 and 6.75 and 6.5 and 6.45. Also, in the assay with SARS-CoV-2 (Calu-3 pre-treated 24 h with 10 μM, MOI 0.01, 48 hours pi, DMSO control 5.18×10^7), the viral titer is given as 2.90×10^7.

The values above are taken from patent publication US20240358684A1, “METHOD FOR ENHANCING INNATE IMMUNE RESPONSE” (Kyoto University, priority 2021, published 2024).
